Measured values published in patent publication US20040163143A1, “Method for efficiently producing transgenic plant using auxin precursor” (NIPPON PAPER INDUSTRIES CO., LTD., priority 2002, published 2004).

Legend:
[1] = test system: E. globulus hypocotyl sections; assay: E. globulus gene introduction test, vector pIAH6 (ipt + iaaH + GUS), adventitious bud redifferentiation and GUS staining; format: cell-based, Eucalyptus globulus; details: for B Adventitious bud differentiated (number of sections): 3 months after infection; for B/A Redifferentiation ratio / C/A Gene introduction ratio / C/B Selection efficiency: section basis
Description: Using a plasmid pIAH6 as a vector having a GUS gene as a model of a desired gene and an ipt gene and an iaaH gene as selectable marker genes, a transformant was produced by carrying out gene introduction into Eucalyptus globulus (hereinafter referred to as “E. globulus”) by the method of the present invention. Seeds of E. globulus from Chile were sterilized by soaking in 70% ethanol for about 1 minute and then soaking with stirring in a 2% aqueous sodium hypochlorite solution for about 4 hours, washed thoroughly with sterile water, inoculated on an MS agar medium to which 0.5 mg/l zeatin had been added and stored in a refrigerator at 4° C. for 2 days to accelerate germination, and then the germination was carried out by culturing at 25° C. under light conditions of about 10 μmol/m^2/s in light intensity. One to two weeks after the inoculation of the seeds onto the germination medium, hypocotyls were collected by cutting out apical buds, cotyledons and roots of the germinated seedlings, and the hypocotyls were cut into sections of about 5 mm to be used as samples for gene introduction and subjected to the following test. A. tumefaciens EHA105 introduced with the plasmid pIAH6 in the above item I was cultured overnight in the YEB liquid medium and then diluted to OD630 =0.5 with EG basal medium, and the sections of hypocotyl prepared in the above were soaked in the cell suspension. Next, each of the sections after removing excess cell suspension was co-cultured with Agrobacterium on an agar medium (agar 8.5 g/l) prepared by adding 1.0 mg/l zeatin, 0.05 mg/l NAA and 40 mg/l acetosyringone to the EG basal medium, at 25° C. for 3 days in the dark to thereby infect each section with the pIAH6-introduced Agrobacterium. In this case, a modified MS medium having an ammonia nitrogen/nitrate nitrogen concentration ratio of 1:3 (5 mM NH4, 15 mM NO3) was supplemented with 20 g/l sucrose and used as the EG basal medium. The sections after infection culturing were put on an EG basal agar medium (agar 8.5 g/l) supplemented with 500 mg/l ticarcillin and 1 μM or 10 μM of an auxin precursor analogue NAM, and the culturing was continued at 25° C. under light conditions of 30 to 40 μmol/m^2/s in light intensity while sub-culturing at an interval of 2 weeks using the same medium. Among these sections, the quicker ones redifferentiated adventitious buds after about 2 months of the Agrobacterium infection. Three months after the Agrobacterium infection, in order to examine expression of the GUS gene used as a model of the desired gene, the redifferentiated adventitious buds were subjected to a GUS staining test in accordance with the method of Jefferson et al. (Plant Mol. Biol. Rep., 5: 387-405 (1987)), and the degree of formation of desired gene-introduced adventitious buds was judged by examining the number of stained adventitious buds (the number of adventitious buds expressing the desired gene). An E. globulus gene introduction test was carried out in the same manner as in Example 1, except that the hypocotyl sections after the Agrobacterium infection were cultured using the EG basal agar medium (agar 8.5 g/l) supplemented with 500 mg/l ticarcillin and 0 μM, 1 μM or 10 μM NAA as auxin.

[2] = test system: stem sections of a high rooting clone of E. globulus; assay: gene introduction test on high rooting clone of E. globulus, vector pIPT10; format: cell-based, Eucalyptus globulus; details: same manner as Example 3 (NAM 1 μM)
Description: Definite buds of a high rooting clone of E. globulus from Chile were aseptically grown using a medium prepared by adding 0.5 mg/l zeatin to the Y basal medium of Example 2, and the elongated stems were cut into sections of 5 mm to be used as samples for gene introduction and infected with the plasmid pIAH6-introduced Agrobacterium in the same manner as in Example 1. The sections after infection culturing were put on an EG basal agar medium (agar 8.5 g/l) supplemented with 500 mg/l ticarcillin and 1 μM of an auxin precursor analogue NAM, and the culturing was continued at 25° C. under light conditions of 30 to 40 μmol/m^2/s in light intensity while sub-culturing at an interval of 2 weeks using the same medium. Four months after the Agrobacterium infection, the redifferentiated adventitious buds were subjected to a GUS staining test in accordance with the above method of Jefferson et al., and the degree of formation of desired gene-introduced adventitious buds was judged. Using plasmid pIPT10 as the vector, a gene introduction test was carried out into a high rooting clone of E. globulus in the same manner as in Example 3.

[3] = test system: populus hybrid strain Y63 stem sections; assay: populus hybrid gene introduction test, vector pIAH6, adventitious bud redifferentiation and multiple bud observation; format: cell-based, Populus sieboldii×Populus grandidentata; details: for B Adventitious bud differentiated (number of sections): 10 sections tested; for B/A Redifferentiation ratio / C/A Gene introduction ratio / C/B Selection efficiency: section basis; for number of redifferentiated adventitious buds into which the desired gene was introduced / total number of adventitious buds redifferentiated: bud basis; for C GUS + adventitious bud differentiated (number of sections): sections with bud judged as a multiple bud after culturing for 4 months
Description: A transformant was produced by carrying out gene introduction into a populus hybrid (Populus sieboldii×Populus grandidentata) by the method of the present invention using the pIAH6 used in Example 1 as the vector. A stem of an aseptic seedling of a populus hybrid strain […] That is, the pIAH6-introduced A. tumefaciens LBA4404 obtained in the same manner as in Example 1 was cultured overnight in the YEB liquid medium and then diluted to OD630=0.5 with Y basal medium, and the stem sections prepared in the above were soaked in this cell suspension. Next, each of these sections after removing excess cell suspension was co-cultured with Agrobacterium on an agar medium (agar 8 g/l) prepared by adding 40 mg/l acetosyringone to the Y basal medium, at 25° C. for 3 days in the dark to thereby be infect with the pIAH6-introduced Agrobacterium. In this case, a modified MS medium (10 mM NH4, 30 mM NO3) was supplemented with 20 g/l sucrose and used as the Y basal medium. The sections after infection culturing were put on the Y basal agar medium (agar 8 g/l) supplemented with 500 mg/l ticarcillin and 1 μM, 5 μM or 30 μM of an auxin precursor analogue NAM, followed by culturing at 25° C. under light conditions of 30 to 40 μmol/m^2/s in light intensity. […] That is, since the ipt gene is not introduced into the escape, the adventitious bud was redifferentiated by mere influence of a desired gene-introduced cell which was present adjacent thereto.

[4] = NAM 1 μM in medium, 60 sections tested
[5] = NAM 10 μM in medium, 48 sections tested

NC(=O)Cc1cccc2ccccc12 [NAM, naphthaleneacetic acid amide]
C GUS + adventitious bud differentiated (number of sections) [1, 4]: 8 number of sections | B Adventitious bud differentiated (number of sections) [1, 4]: 21 number of sections | B/A Redifferentiation ratio ([1]; NAM 1 μM in medium): 35.0% | C/A Gene introduction ratio ([1]; NAM 1 μM in medium): 13.3% | C/B Selection efficiency ([1]; NAM 1 μM in medium): 38.1% | C GUS + adventitious bud differentiated (number of sections) [1, 5]: 1 number of sections | B Adventitious bud differentiated (number of sections) [1, 5]: 2 number of sections | B/A Redifferentiation ratio ([1]; NAM 10 μM in medium): 4.2% | C/A Gene introduction ratio ([1]; NAM 10 μM in medium): 2.1% | C/B Selection efficiency ([1]; NAM 10 μM in medium): 50.0% | redifferentiated individuals into which the desired gene was introduced [2]: not obtained | redifferentiation of adventitious buds [2]: not redifferentiated | B Adventitious bud differentiated (number of sections) ([3]; NAM 1 μM in medium): 7 number of sections | B/A Redifferentiation ratio ([3]; NAM 1 μM in medium): 70.0% | C/A Gene introduction ratio ([3]; NAM 1 μM in medium): 50.0% | C/B Selection efficiency ([3]; NAM 1 μM in medium): 71.4% | number of redifferentiated adventitious buds into which the desired gene was introduced ([3]; NAM 1 μM): 6 | total number of adventitious buds redifferentiated ([3]; NAM 1 μM): 67 | C GUS + adventitious bud differentiated (number of sections) ([3]; NAM 1 μM): 5 number of sections | B Adventitious bud differentiated (number of sections) ([3]; NAM 5 μM in medium): 6 number of sections | B/A Redifferentiation ratio ([3]; NAM 5 μM in medium): 60.0% | C/A Gene introduction ratio ([3]; NAM 5 μM in medium): 40.0% | C/B Selection efficiency ([3]; NAM 5 μM in medium): 66.7% | number of redifferentiated adventitious buds into which the desired gene was introduced ([3]; NAM 5 μM): 5 | total number of adventitious buds redifferentiated ([3]; NAM 5 μM): 34 | C GUS + adventitious bud differentiated (number of sections) ([3]; NAM 5 μM): 4 number of sections | B Adventitious bud differentiated (number of sections) ([3]; NAM 30 μM in medium): 0 number of sections | B/A Redifferentiation ratio ([3]; NAM 30 μM in medium): 0% | C/A Gene introduction ratio ([3]; NAM 30 μM in medium): 0% | C/B Selection efficiency ([3]; NAM 30 μM in medium): 0% | C GUS + adventitious bud differentiated (number of sections) ([3]; NAM 30 μM): 0 number of sections
